The target of experiment [1] is T1, Voltage-dependent T-type calcium channel subunit alpha-1G (Homo sapiens, UniProt O43497). The experiment can be described thus: Inhibition of T-type CaV3.1 channel expressed in HEK293 cells assessed as inhibition of calcium current by automated patch-clamp assay. The class given is cell-based.
The target of experiment [2] is T1, Voltage-dependent T-type calcium channel subunit alpha-1G. Put plainly: Inhibition of T-type CaV3.1 channel expressed in HEK293 cells assessed as inhibition of calcium current at 10 uM by fluorescence based HTS FDSS6000 assay. The class given is cell-based.

T1 sequence (O43497 whole entry): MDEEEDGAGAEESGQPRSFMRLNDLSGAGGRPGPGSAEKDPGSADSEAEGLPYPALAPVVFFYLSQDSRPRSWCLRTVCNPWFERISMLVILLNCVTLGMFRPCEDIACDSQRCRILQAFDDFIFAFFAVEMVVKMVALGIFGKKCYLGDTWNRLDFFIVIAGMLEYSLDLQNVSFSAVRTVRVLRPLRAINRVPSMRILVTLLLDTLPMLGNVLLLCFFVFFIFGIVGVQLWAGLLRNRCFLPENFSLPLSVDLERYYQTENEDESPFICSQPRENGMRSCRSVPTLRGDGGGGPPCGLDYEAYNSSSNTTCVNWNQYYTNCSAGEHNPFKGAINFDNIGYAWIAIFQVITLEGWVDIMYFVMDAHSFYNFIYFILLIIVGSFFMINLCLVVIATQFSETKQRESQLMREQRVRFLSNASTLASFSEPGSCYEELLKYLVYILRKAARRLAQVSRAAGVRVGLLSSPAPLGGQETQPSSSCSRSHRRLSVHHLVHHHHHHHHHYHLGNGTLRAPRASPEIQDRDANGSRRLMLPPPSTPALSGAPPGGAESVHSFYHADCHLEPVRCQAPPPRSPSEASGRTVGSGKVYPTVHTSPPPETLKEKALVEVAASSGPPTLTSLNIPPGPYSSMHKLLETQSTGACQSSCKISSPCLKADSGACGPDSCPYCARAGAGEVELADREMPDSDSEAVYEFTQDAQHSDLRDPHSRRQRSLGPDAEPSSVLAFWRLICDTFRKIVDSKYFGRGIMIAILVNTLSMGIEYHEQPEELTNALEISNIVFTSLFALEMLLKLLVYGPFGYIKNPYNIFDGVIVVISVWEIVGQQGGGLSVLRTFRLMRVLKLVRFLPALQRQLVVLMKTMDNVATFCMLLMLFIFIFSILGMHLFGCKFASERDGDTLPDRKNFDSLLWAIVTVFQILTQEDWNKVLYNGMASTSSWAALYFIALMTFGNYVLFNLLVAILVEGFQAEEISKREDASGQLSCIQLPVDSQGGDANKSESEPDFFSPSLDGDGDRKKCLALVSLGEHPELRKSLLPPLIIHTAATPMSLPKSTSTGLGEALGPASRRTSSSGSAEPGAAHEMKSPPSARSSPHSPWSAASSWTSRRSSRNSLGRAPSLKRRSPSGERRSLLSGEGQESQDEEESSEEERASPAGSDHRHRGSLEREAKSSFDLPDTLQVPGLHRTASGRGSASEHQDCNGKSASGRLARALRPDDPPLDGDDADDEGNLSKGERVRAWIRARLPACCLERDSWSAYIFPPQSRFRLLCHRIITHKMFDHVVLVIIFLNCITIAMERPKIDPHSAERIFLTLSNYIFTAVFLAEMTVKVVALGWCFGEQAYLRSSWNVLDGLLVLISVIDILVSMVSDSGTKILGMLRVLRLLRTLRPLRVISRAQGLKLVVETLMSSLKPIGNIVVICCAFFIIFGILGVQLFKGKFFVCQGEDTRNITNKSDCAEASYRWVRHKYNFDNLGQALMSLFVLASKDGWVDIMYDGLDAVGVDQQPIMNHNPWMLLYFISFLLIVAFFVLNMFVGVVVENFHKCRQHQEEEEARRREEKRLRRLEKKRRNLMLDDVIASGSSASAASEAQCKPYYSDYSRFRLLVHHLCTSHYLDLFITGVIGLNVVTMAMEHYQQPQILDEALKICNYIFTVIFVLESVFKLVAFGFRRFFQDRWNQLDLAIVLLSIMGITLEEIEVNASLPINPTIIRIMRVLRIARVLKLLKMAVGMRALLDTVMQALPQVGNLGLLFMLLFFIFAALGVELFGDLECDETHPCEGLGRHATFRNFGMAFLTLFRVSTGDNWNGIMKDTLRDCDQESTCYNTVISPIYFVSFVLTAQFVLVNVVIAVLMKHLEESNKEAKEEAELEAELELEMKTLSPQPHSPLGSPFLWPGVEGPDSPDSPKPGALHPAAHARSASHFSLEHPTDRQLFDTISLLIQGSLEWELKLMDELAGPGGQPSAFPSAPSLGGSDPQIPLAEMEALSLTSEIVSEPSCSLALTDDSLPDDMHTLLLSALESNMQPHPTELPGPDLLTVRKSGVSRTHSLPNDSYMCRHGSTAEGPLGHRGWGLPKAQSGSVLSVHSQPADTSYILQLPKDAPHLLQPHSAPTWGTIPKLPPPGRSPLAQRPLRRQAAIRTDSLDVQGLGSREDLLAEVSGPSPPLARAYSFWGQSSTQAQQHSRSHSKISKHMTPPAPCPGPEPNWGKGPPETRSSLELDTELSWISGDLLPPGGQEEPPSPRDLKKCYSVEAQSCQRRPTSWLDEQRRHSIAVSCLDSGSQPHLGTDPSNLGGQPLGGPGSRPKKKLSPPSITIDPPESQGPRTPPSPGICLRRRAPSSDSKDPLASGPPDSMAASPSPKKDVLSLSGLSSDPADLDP

On to `CCCc1nc(-c2ccccc2)c(CNCCCN2CCN(c3cccc(Cl)c3)CC2)o1`, for which the IC50 in experiment [1] came out at 1750 nM. Moreover, the inhibition in experiment [2] came out at 65.9%.

As for `CCCc1nc(-c2ccccc2)c(CNCCCN2CCN(c3ccc(C)cc3)CC2)o1`, the IC50 in experiment [1] came to 130000 nM. In experiment [2], the inhibition was 53.9%.

Consider `CCCc1nc(-c2ccccc2)c(CNCCN2CCN(c3cccc(C)c3)CC2)o1`, for which the inhibition in experiment [2] was found to be 43.1%.

On to `CCCc1nc(-c2ccccc2)c(CNCCN2CCN(c3cccc(C(F)(F)F)c3)CC2)o1`, for which the IC50 in experiment [1] was determined as 1940 nM. In addition, in experiment [2], the inhibition turned out to be 56.3%.

Turning to `CCCc1nc(-c2ccccc2)c(CNCCN2CCN(c3ccccc3C)CC2)o1`, the IC50 in experiment [1] amounted to 4300 nM. For the same molecule, the inhibition in experiment [2] was 51.3%.

As for `CCCc1nc(-c2ccccc2)c(CNCCCN2CCN(c3ccccc3)CC2)o1`, the inhibition in experiment [2] amounted to 43.7%.

For the molecule `CCCc1nc(-c2ccccc2)c(CNCCCN2CCN(c3ccccc3C)CC2)o1`, the IC50 in experiment [1] was determined as 8750 nM. Also, the inhibition in experiment [2] came to 54.5%.

For `CCCc1nc(-c2ccccc2)c(CNCCN2CCN(c3ccc(C)cc3)CC2)o1`, the inhibition in experiment [2] stood at 48.1%.

Turning to `CCCc1nc(-c2ccccc2)c(CNCCN2CCN(c3ccc(F)cc3)CC2)o1`, in experiment [1], the IC50 turned out to be 7080 nM. Besides, the inhibition in experiment [2] was 54.1%.

For the molecule `CCCc1nc(-c2ccccc2)c(CNCCCN2CCN(c3ccc(OC)cc3)CC2)o1`, in experiment [2], the inhibition turned out to be 42.1%.

In the case of `CCCc1nc(-c2ccccc2)c(CNCCN2CCN(c3cccc(OC)c3)CC2)o1`, in experiment [2], the inhibition stood at 40.2%.

On to `CCCc1nc(-c2ccccc2)c(CNCCN2CCN(c3ccc(C)cc3C)CC2)o1`, for which the IC50 in experiment [1] was determined as 2220 nM. Besides, in experiment [2], the inhibition amounted to 64.3%.

Consider `CCCc1nc(-c2ccccc2)c(CNCCCN2CCN(c3cccc(C)c3)CC2)o1`, for which the IC50 in experiment [1] was 1190 nM. Moreover, in experiment [2], the inhibition amounted to 47.8%.

Consider `CCCc1nc(-c2ccccc2)c(CNCCN2CCN(c3ccccc3OC)CC2)o1`, for which, in experiment [2], the inhibition worked out at 39.7%.

Consider `CCCc1nc(-c2ccccc2)c(CNCCCN2CCN(c3ccccc3C(F)(F)F)CC2)o1`, for which the inhibition in experiment [2] was 45%.

On to `CCCc1nc(-c2ccccc2)c(CNCCCN2CCN(c3cccc(F)c3)CC2)o1`, for which the IC50 in experiment [1] is 3030 nM. In experiment [2], the inhibition is 68.9%.

On to `CCCc1nc(-c2ccccc2)c(CNCCN2CCN(c3ccccn3)CC2)o1`, for which the inhibition in experiment [2] came out at 48.1%.

For the molecule `CCCc1nc(-c2ccccc2)c(CNCCCN2CCN(c3cccc(OC)c3)CC2)o1`, in experiment [2], the inhibition was found to be 36.4%.

For `Cc1nc(-c2ccccc2)c(CNCCCN2CCN(c3ccc(Cl)cc3)CC2)o1`, the inhibition in experiment [2] amounted to 38.1%.

On to `CCCc1nc(-c2ccccc2)c(CNCCCN2CCN(c3ccc(Cl)cc3)CC2)o1`, for which, in experiment [1], the IC50 was 1310 nM. Moreover, the inhibition in experiment [2] was 63.2%.

Turning to `CCCc1nc(-c2ccccc2)c(CNCCN2CCN(C(c3ccccc3)c3ccccc3)CC2)o1`, the IC50 in experiment [1] was 7470 nM. In addition, in experiment [2], the inhibition came out at 71.8%.

`CCCc1nc(-c2ccccc2)c(CNCCCN2CCN(c3ccccc3OC)CC2)o1`: the inhibition in experiment [2] turned out to be 41%.

Consider `CCCc1nc(-c2ccccc2)c(CNCCCN2CCN(c3ccc(C)c(C)c3)CC2)o1`, for which the IC50 in experiment [1] came to 3020 nM. Moreover, the inhibition in experiment [2] was 54.6%.

Regarding `CCCc1nc(-c2ccccc2)c(CNCCCN2CCN(c3ccc(C(F)(F)F)cc3)CC2)o1`, the IC50 in experiment [1] was determined as 7250 nM. Besides, in experiment [2], the inhibition turned out to be 51.6%.

Take `CCCc1nc(-c2ccccc2)c(CNCCN2CCN(c3ccccc3Cl)CC2)o1`: the IC50 in experiment [1] came out at 4370 nM. Besides, in experiment [2], the inhibition amounted to 60.1%.

On to `CCCc1nc(-c2ccccc2)c(CNCCN2CCN(c3ccccc3)CC2)o1`, for which the IC50 in experiment [1] came to 10200 nM. Besides, in experiment [2], the inhibition was found to be 54.3%.

For `CCCc1nc(-c2ccccc2)c(CNCCN2CCN(c3cccc(C)c3C)CC2)o1`, the IC50 in experiment [1] is 1710 nM. In addition, the inhibition in experiment [2] was 66.7%.

Regarding `Cc1nc(-c2ccccc2)c(CNCCN2CCN(C(c3ccccc3)c3ccccc3)CC2)o1`, the inhibition in experiment [2] stood at 57.3%.

For the molecule `CCCc1nc(-c2ccccc2)c(CNCCN2CCN(c3cccc(F)c3)CC2)o1`, the IC50 in experiment [1] is 3350 nM. The inhibition in experiment [2] turned out to be 62.3%.

Take `CCCc1nc(-c2ccccc2)c(CNCCN2CCN(c3ccccc3F)CC2)o1`: the inhibition in experiment [2] is 46.5%.

Regarding `CCCc1nc(-c2ccccc2)c(CNCCCN2CCN(c3ccccc3F)CC2)o1`, the IC50 in experiment [1] was determined as 16100 nM. In experiment [2], the inhibition turned out to be 54.4%.

`CCCc1nc(-c2ccccc2)c(CNCCN2CCN(c3ccccc3C(F)(F)F)CC2)o1`: the IC50 in experiment [1] amounted to 2100 nM. The inhibition in experiment [2] is 54.6%.

Take `CCCc1nc(-c2ccccc2)c(CNCCN2CCN(c3ccc(Cl)cc3)CC2)o1`: the IC50 in experiment [1] turned out to be 2820 nM. Further, in experiment [2], the inhibition was 55.8%.

On to `CCCc1nc(-c2ccccc2)c(CNCCN2CCN(c3ccc(OC)cc3)CC2)o1`, for which the IC50 in experiment [1] came out at 9200 nM. Besides, the inhibition in experiment [2] is 51.5%.

Take `CCCc1nc(-c2ccccc2)c(CNCCN2CCN(c3ccc(C)c(C)c3)CC2)o1`: the IC50 in experiment [1] amounted to 2220 nM. The inhibition in experiment [2] came to 67.9%.

Regarding `CCCc1nc(-c2ccccc2)c(CNCCCN2CCN(c3ccc(F)cc3)CC2)o1`, the IC50 in experiment [1] is 3210 nM. For the same molecule, in experiment [2], the inhibition came out at 62.5%.

As to `CCCc1nc(-c2ccccc2)c(CNCCN2CCN(c3cccc(Cl)c3)CC2)o1`, the IC50 in experiment [1] worked out at 1450 nM. Further, the inhibition in experiment [2] is 51.2%.

With `CCCc1nc(-c2ccccc2)c(CNCCN2CCN(c3ccc(C(F)(F)F)cc3)CC2)o1`, the IC50 in experiment [1] is 1300 nM. Besides, in experiment [2], the inhibition was found to be 58.7%.

In the case of `CCCc1nc(-c2ccccc2)c(CNCCCN2CCN(c3ccccc3Cl)CC2)o1`, the IC50 in experiment [1] was 2800 nM. Moreover, the inhibition in experiment [2] is 64.7%.

Turning to `CCCc1nc(-c2ccccc2)c(CNCCCN2CCN(c3cccc(C)c3C)CC2)o1`, the IC50 in experiment [1] was determined as 1780 nM. Moreover, the inhibition in experiment [2] came to 55.2%.

In the case of `CCCc1nc(-c2ccccc2)c(CNCCCN2CCN(c3cccc(C(F)(F)F)c3)CC2)o1`, the IC50 in experiment [1] stood at 650 nM. The inhibition in experiment [2] amounted to 51.6%.

What is called IC50 is the point on the concentration scale where inhibition reaches its midpoint. Usually inhibition stands for the relative decrease from the control value, in per cent.
